# From ChEMBL document CHEMBL3044670, “Aromatic sulfonyl hydrazides and sulfonyl hydrazones: antimicrobial activity and physical properties” (2013)
# Tests used:
# [1] = system: Escherichia coli; assay: Antibacterial activity against Escherichia coli ATCC 25922 at 30 ug/disk after 18 to 24 hr by disk diffusion method; format: functional; details: read-out: DIZ
# [2] = system: Pseudomonas fluorescens; assay: Antibacterial activity against Pseudomonas fluorescens ATCC 49838 after 18 to 24 hr by broth microdilution method; format: functional
# [3] = system: Bacillus subtilis; assay: Antibacterial activity against Bacillus subtilis ATCC 6633 at 30 ug/disk after 18 to 24 hr by disk diffusion method; format: functional; details: read-out: DIZ
# [4] = system: Enterococcus faecalis; assay: Antibacterial activity against Enterococcus faecalis ATCC 29212 at 30 ug/disk after 18 to 24 hr by disk diffusion method; format: functional; details: read-out: DIZ
# [5] = system: Candida albicans; assay: Antifungal activity against Candida albicans ATCC 90028 at 30 ug/disk after 18 to 24 hr by disk diffusion method; format: functional; details: read-out: DIZ
# [6] = system: Pseudomonas fluorescens; assay: Antibacterial activity against Pseudomonas fluorescens ATCC 49838 at 30 ug/disk after 18 to 24 hr by disk diffusion method; format: functional; details: read-out: DIZ
# [7] = system: Staphylococcus epidermidis; assay: Antibacterial activity against Staphylococcus epidermidis ATCC 12228 at 30 ug/disk after 18 to 24 hr by disk diffusion method; format: functional; details: read-out: DIZ
# [8] = system: Klebsiella aerogenes; assay: Antibacterial activity against Enterobacter aerogenes ATCC 13048 after 18 to 24 hr by broth microdilution method; format: functional
# [9] = system: Enterococcus faecalis; assay: Antibacterial activity against Enterococcus faecalis ATCC 29212 after 18 to 24 hr by broth microdilution method; format: functional
# [10] = system: Staphylococcus aureus; assay: Antibacterial activity against Staphylococcus aureus ATCC 25923 at 30 ug/disk after 18 to 24 hr by disk diffusion method; format: functional; details: read-out: DIZ
# [11] = system: Bacillus subtilis; assay: Antibacterial activity against Bacillus subtilis ATCC 6633 after 18 to 24 hr by broth microdilution method; format: functional
# [12] = system: Klebsiella pneumoniae; assay: Antibacterial activity against Klebsiella pneumoniae ATCC 13883 at 30 ug/disk after 18 to 24 hr by disk diffusion method; format: functional; details: read-out: DIZ
# [13] = system: Pseudomonas aeruginosa; assay: Antibacterial activity against Pseudomonas aeruginosa ATCC 27853 at 30 ug/disk after 18 to 24 hr by disk diffusion method; format: functional; details: read-out: DIZ
# [14] = system: Pseudomonas aeruginosa; assay: Antibacterial activity against Pseudomonas aeruginosa ATCC 27853 after 18 to 24 hr by broth microdilution method; format: functional
# [15] = system: Klebsiella aerogenes; assay: Antibacterial activity against Enterobacter aerogenes ATCC 13048 at 30 ug/disk after 18 to 24 hr by disk diffusion method; format: functional; details: read-out: DIZ
# [16] = system: Bacillus cereus; assay: Antibacterial activity against Bacillus cereus ATCC 11778 at 30 ug/disk after 18 to 24 hr by disk diffusion method; format: functional; details: read-out: DIZ
# [17] = system: Staphylococcus aureus; assay: Antibacterial activity against Staphylococcus aureus ATCC 25923 after 18 to 24 hr by broth microdilution method; format: functional
# [18] = system: Klebsiella pneumoniae; assay: Antibacterial activity against Klebsiella pneumoniae ATCC 13883 after 18 to 24 hr by broth microdilution method; format: functional
# [19] = system: Staphylococcus epidermidis; assay: Antibacterial activity against Staphylococcus epidermidis ATCC 12228 at 40 ug/disk after 18 to 24 hr by disk diffusion method; format: functional; details: read-out: DIZ
# [20] = system: Bacillus cereus; assay: Antibacterial activity against Bacillus cereus ATCC 11778 at 40 ug/disk after 18 to 24 hr by disk diffusion method; format: functional; details: read-out: DIZ
# [21] = system: Klebsiella pneumoniae; assay: Antibacterial activity against Klebsiella pneumoniae ATCC 13883 at 40 ug/disk after 18 to 24 hr by disk diffusion method; format: functional; details: read-out: DIZ
# [22] = system: Pseudomonas fluorescens; assay: Antibacterial activity against Pseudomonas fluorescens ATCC 49838 at 40 ug/disk after 18 to 24 hr by disk diffusion method; format: functional; details: read-out: DIZ
# [23] = system: Pseudomonas aeruginosa; assay: Antibacterial activity against Pseudomonas aeruginosa ATCC 27853 at 40 ug/disk after 18 to 24 hr by disk diffusion method; format: functional; details: read-out: DIZ
# [24] = system: Enterococcus faecalis; assay: Antibacterial activity against Enterococcus faecalis ATCC 29212 at 40 ug/disk after 18 to 24 hr by disk diffusion method; format: functional; details: read-out: DIZ
# [25] = system: Candida albicans; assay: microbe, parasite or virus in culture; details: ATCC 90028, read-out: DIZ
# Description: Antifungal activity against Candida albicans ATCC 90028 at 40 ug/disk after 18 to 24 hr by disk diffusion method
# [26] = system: Candida albicans; assay: Antifungal activity against Candida albicans ATCC 90028 after 18 to 24 hr by broth microdilution method; format: functional
# [27] = system: Klebsiella aerogenes; assay: Antibacterial activity against Enterobacter aerogenes ATCC 13048 at 40 ug/disk after 18 to 24 hr by disk diffusion method; format: functional; details: read-out: DIZ
# [28] = system: Staphylococcus aureus; assay: Antibacterial activity against Staphylococcus aureus ATCC 25923 at 40 ug/disc after 18 to 24 hr by disk diffusion method; format: functional; details: read-out: DIZ
# [29] = system: Bacillus subtilis; assay: Antibacterial activity against Bacillus subtilis ATCC 6633 at 40 ug/disk after 18 to 24 hr by disk diffusion method; format: functional; details: read-out: DIZ
# [30] = system: Escherichia coli; assay: Antibacterial activity against Escherichia coli ATCC 25922 at 40 ug/disk after 18 to 24 hr by disk diffusion method; format: functional; details: read-out: DIZ
# [31] = system: Staphylococcus aureus; assay: Antibacterial activity against Staphylococcus aureus ATCC 25923 at 140 ug/disc after 18 to 24 hr by disk diffusion method; format: functional; details: read-out: DIZ
# [32] = system: Escherichia coli; assay: Antibacterial activity against Escherichia coli ATCC 25922 at 140 ug/disk after 18 to 24 hr by disk diffusion method; format: functional; details: read-out: DIZ
# [33] = system: Escherichia coli; assay: Antibacterial activity against Escherichia coli ATCC 25922 after 18 to 24 hr by broth microdilution method; format: functional
# [34] = system: Bacillus cereus; assay: Antibacterial activity against Bacillus cereus ATCC 11778 after 18 to 24 hr by broth microdilution method; format: functional
# [35] = system: Klebsiella aerogenes; assay: Antibacterial activity against Enterobacter aerogenes ATCC 13048 at 140 ug/disk after 18 to 24 hr by disk diffusion method; format: functional; details: read-out: DIZ
# [36] = system: Bacillus cereus; assay: Antibacterial activity against Bacillus cereus ATCC 11778 at 140 ug/disk after 18 to 24 hr by disk diffusion method; format: functional; details: read-out: DIZ
# [37] = system: Klebsiella pneumoniae; assay: Antibacterial activity against Klebsiella pneumoniae ATCC 13883 at 140 ug/disk after 18 to 24 hr by disk diffusion method; format: functional; details: read-out: DIZ
# [38] = system: Bacillus subtilis; assay: Antibacterial activity against Bacillus subtilis ATCC 6633 at 140 ug/disk after 18 to 24 hr by disk diffusion method; format: functional; details: read-out: DIZ
# [39] = system: Pseudomonas fluorescens; assay: Antibacterial activity against Pseudomonas fluorescens ATCC 49838 at 140 ug/disk after 18 to 24 hr by disk diffusion method; format: functional; details: read-out: DIZ
# [40] = system: Enterococcus faecalis; assay: Antibacterial activity against Enterococcus faecalis ATCC 29212 at 140 ug/disk after 18 to 24 hr by disk diffusion method; format: functional; details: read-out: DIZ
# [41] = system: Staphylococcus epidermidis; assay: Antibacterial activity against Staphylococcus epidermidis ATCC 12228 after 18 to 24 hr by broth microdilution method; format: functional
# [42] = system: Pseudomonas aeruginosa; assay: Antibacterial activity against Pseudomonas aeruginosa ATCC 27853 at 140 ug/disk after 18 to 24 hr by disk diffusion method; format: functional; details: read-out: DIZ
# [43] = system: Candida albicans; assay: Antifungal activity against Candida albicans ATCC 90028 at 140 ug/disk after 18 to 24 hr by disk diffusion method; format: functional; details: read-out: DIZ
# [44] = system: Staphylococcus epidermidis; assay: Antibacterial activity against Staphylococcus epidermidis ATCC 12228 at 140 ug/disk after 18 to 24 hr by disk diffusion method; format: functional; details: read-out: DIZ
Compound,MIC [2],MIC [8],MIC [9],MIC [11],MIC [14],MIC [17],MIC [18],MIC [26],MIC [33],MIC [41],zone of inhibition at 30 µg/disc [1],zone of inhibition at 30 µg/disc [3],zone of inhibition at 30 µg/disc [4],zone of inhibition at 30 µg/disc [5],zone of inhibition at 30 µg/disc [6],zone of inhibition at 30 µg/disc [7],zone of inhibition at 30 µg/disc [10],zone of inhibition at 30 µg/disc [12],zone of inhibition at 30 µg/disc [13],zone of inhibition at 30 µg/disc [15],further results
COc1cc(Cc2cnc(N)nc2N)cc(OC)c1OC [TRIMETHOPRIM],1 µg/mL,1 µg/mL,0.5 µg/mL,1 µg/mL,1 µg/mL,1 µg/mL,1 µg/mL,–,–,–,0 mm,20 mm,27 mm,0 mm,0 mm,29 mm,37 mm,0 mm,31 mm,28 mm,zone of inhibition at 30 µg/disc [16]: 0 mm
CN(C)[C@@H]1C(O)=C(C(N)=O)C(=O)[C@@]2(O)C(O)=C3C(=O)c4c(O)cccc4[C@@](C)(O)[C@H]3C[C@@H]12 [TETRACYCLINE],0.125 µg/mL,0.15 µg/mL,0.625 µg/mL,0.075 µg/mL,0.125 µg/mL,–,0.15 µg/mL,–,0.075 µg/mL,0.125 µg/mL,23 mm,26 mm,0 mm,0 mm,19 mm,19 mm,0 mm,12 mm,23 mm,0 mm,zone of inhibition at 30 µg/disc [16]: 19 mm

# The next lines start with results.
MIC [2],MIC [8],MIC [9],MIC [11],MIC [14],MIC [17],MIC [18],MIC [26],MIC [33],MIC [41],Compound,zone of inhibition at 30 µg/disc [1],zone of inhibition at 30 µg/disc [3],zone of inhibition at 30 µg/disc [4],zone of inhibition at 30 µg/disc [5],zone of inhibition at 30 µg/disc [6],zone of inhibition at 30 µg/disc [7],zone of inhibition at 30 µg/disc [10],zone of inhibition at 30 µg/disc [12],zone of inhibition at 30 µg/disc [13],zone of inhibition at 30 µg/disc [15],further results
–,–,–,–,–,–,–,0.15 µg/mL,–,–,Clc1ccc(COC(Cn2ccnc2)c2ccc(Cl)cc2Cl)c(Cl)c1 (stereo not drawn) [MICONAZOLE],–,–,–,–,–,–,–,–,–,–,zone of inhibition at 40 µg/disc [19]: 0 mm; zone of inhibition at 40 µg/disc [20]: 0 mm; zone of inhibition at 40 µg/disc [21]: 0 mm; zone of inhibition at 40 µg/disc [22]: 0 mm; zone of inhibition at 40 µg/disc [23]: 0 mm; zone of inhibition at 40 µg/disc [24]: 0 mm; zone of inhibition at 40 µg/disc [25]: 26 mm; zone of inhibition at 40 µg/disc [27]: 0 mm; zone of inhibition at 40 µg/disc [28]: 0 mm; zone of inhibition at 40 µg/disc [29]: 0 mm; zone of inhibition at 40 µg/disc [30]: 0 mm
125 µg/mL,250 µg/mL,1000 µg/mL,125 µg/mL,125 µg/mL,250 µg/mL,125 µg/mL,1000 µg/mL,125 µg/mL,125 µg/mL,CN(/N=C/c1cccs1)S(=O)(=O)c1ccccc1,–,–,–,–,–,–,–,–,–,–,zone of inhibition at 140 µg/disc [31]: 12 mm; zone of inhibition at 140 µg/disc [32]: 17 mm; MIC [34]: 250 µg/mL; zone of inhibition at 140 µg/disc [35]: 17 mm; zone of inhibition at 140 µg/disc [36]: 25 mm; zone of inhibition at 140 µg/disc [37]: 21 mm; zone of inhibition at 140 µg/disc [38]: 24 mm; zone of inhibition at 140 µg/disc [39]: 25 mm; zone of inhibition at 140 µg/disc [40]: 0 mm; zone of inhibition at 140 µg/disc [42]: 24 mm; zone of inhibition at 140 µg/disc [43]: 0 mm; zone of inhibition at 140 µg/disc [44]: 15 mm
1000 µg/mL,1000 µg/mL,> 2000 µg/mL,> 2000 µg/mL,1000 µg/mL,> 2000 µg/mL,> 2000 µg/mL,1000 µg/mL,1000 µg/mL,> 2000 µg/mL,NCC(O)CNS(=O)(=O)c1ccccc1 (stereo not drawn),–,–,–,–,–,–,–,–,–,–,zone of inhibition at 140 µg/disc [31]: 0 mm; zone of inhibition at 140 µg/disc [32]: 0 mm; MIC [34]: > 2000 µg/mL; zone of inhibition at 140 µg/disc [35]: 0 mm; zone of inhibition at 140 µg/disc [36]: 0 mm; zone of inhibition at 140 µg/disc [37]: 0 mm; zone of inhibition at 140 µg/disc [38]: 0 mm; zone of inhibition at 140 µg/disc [39]: 0 mm; zone of inhibition at 140 µg/disc [40]: 0 mm; zone of inhibition at 140 µg/disc [42]: 0 mm; zone of inhibition at 140 µg/disc [43]: 0 mm; zone of inhibition at 140 µg/disc [44]: 0 mm
